Assay results reported in ChEMBL document CHEMBL1131952, “Synthesis of tetrasubstituted bicyclo[3.2.1]octenes as potential inhibitors of influenza virus sialidase” (Bioorg Med Chem Lett, 1999).

Legend:
Influenza A virus = assay: Inhibitory activity against sialidase of influenza A; format: functional, organism-based
Influenza B virus = assay: Inhibitory activity against sialidase of influenza B; format: functional, organism-based

| Structure (SMILES) | IC50 (Influenza A virus) [µM] | IC50 (Influenza B virus) [µM] |
| --- | --- | --- |
| CCC(CC)O[C@@H]1C=C(C(=O)O)[C@@H]2CC[C@@]1(NC(C)=O)[C@H]2O | 80 | 340 |
| CCC(CC)O[C@@H]1C=C(C(=O)O)[C@@H]2CC[C@@]1(C(=O)O)[C@H]2O | > 670 | > 670 |
| CCC(CC)O[C@@H]1C=C(C(=O)O)[C@@H]2CC[C@@]1(C(=O)OC)[C@H]2O | 99 | 83 |
| CC(=O)N[C@H]1[C@H]([C@H](O)[C@H](O)CO)OC(C(=O)O)=C[C@@H]1O [NEU5AC2EN] | 2.8 | 3 |
